This note sets out measurements from patent publication US20040147578A1, “Use of lipoaminoacids as absorption promoters in a pharmaceutical composition” (priority 2001, published 2004).

A short description of this data set: In vitro permeation study in Franz cell. The format is in vitro ADME. Conditions: receiver pH 7.4.

Excerpt: These studies have been carried out using the most commonly used model in in vitro permeation studies. It is the Franz cell which is made up of two compartments separated by a membrane:
a donor compartment in which the composition to be studied is placed,
a membrane preimpregnated with a lipidic solution, made up of a mixture of phospholipids,
a receiver compartment containing an aqueous solution buffered at pH 7.4 under constant agitation, in which the active principle is recovered at regular intervals. Depending on the case, the composition of the medium can vary with the physico-chemical characteristics of the molecule.
These permeation studies were carried out by comparing each dispersed system comprising the lipoamino acid(s) with a simple solution of active principle.
The permeation expresses an active principle quantity which diffuses through a membrane per unit of surface and time (μg/cm^2/h).

Regarding `CC(=O)[C@H]1CC[C@H]2[C@@H]3CCC4=CC(=O)CC[C@]4(C)[C@H]3CC[C@]12C` [Progesterone], the Permeation is, setting by setting: (time 0 hours, progesterone, oral-route system of Example 3 vs simple solution of active principle) 0 μg/cm^2/h; (time 0 hours, progesterone, transdermic-route system of Example 4 vs simple solution of active principle) 0 μg/cm^2/h; (time 1 hour, progesterone, oral-route system of Example 3 vs simple solution of active principle) 0.2 μg/cm^2/h; (time 1 hour, progesterone, transdermic-route system of Example 4 vs simple solution of active principle) 0.25 μg/cm^2/h; (time 2 hours, progesterone, oral-route system of Example 3 vs simple solution of active principle) 0.4 μg/cm^2/h; (time 2 hours, progesterone, transdermic-route system of Example 4 vs simple solution of active principle) 0.43 μg/cm^2/h. Also, the Permeation came out at 0.8 μg/cm^2/h (time 3 hours, progesterone, oral-route system of Example 3 vs simple solution of active principle) and 0.85 μg/cm^2/h (time 3 hours, progesterone, transdermic-route system of Example 4 vs simple solution of active principle).

Take `Nc1nc2c(ncn2COCCO)c(=O)[nH]1` [Aciclovir]: the Permeation is, setting by setting: (time 0 hours, aciclovir, topical-route system of Example 6 vs simple solution of active principle) 0 μg/cm^2/h; (time 1 hour, aciclovir, topical-route system of Example 6 vs simple solution of active principle) 2.35 μg/cm^2/h; (time 2 hours, aciclovir, topical-route system of Example 6 vs simple solution of active principle) 4.65 μg/cm^2/h; (time 3 hours, aciclovir, topical-route system of Example 6 vs simple solution of active principle) 5.80 μg/cm^2/h.
